Test system: Plasmodium berghei
Assay: Luciferase/luciferin-expressing antifolate-resistant parasites were used to infect a culture of HepG2 cells that were pre-incubated with compounds. Infected hepatocytes emit light due to the luciferase reaction. Assay results are presented as the percent inhibition of light emission compared to control. […]
Type: functional
Details: sporozoite; for IC90: read-out: LUCIFERASE INFECTION ASSAY - IC90
[1] = read-out: LUCIFERASE INFECTION ASSAY - IC50

Compound	IC90	IC50 [1]	other results
Cc1cc(C)c(NC(=NCc2ccc(Cl)cc2)Nc2c(C)cc(C)cc2C)c(C)c1	> 10 µM	–	IC50 (PBLUC_HILL_SLOPE 2.28, PBLUC_R_SQUARED 0.76, read-out: LUCIFERASE INFECTION ASSAY - IC50): 5.92 µM
COc1ccc(C2=NN(c3ccccc3)C(c3cn(-c4ccccc4)nc3-c3cccnc3)C2)cc1 (configuration not stated)	9.32 µM	–	IC50 (PBLUC_HILL_SLOPE 3.03, PBLUC_R_SQUARED 0.661, read-out: LUCIFERASE INFECTION ASSAY - IC50): 4.51 µM
Cc1oc2c(c1C(=O)N1CCC(C)CC1)C(=O)c1ccccc1C2=O	> 10 µM	–	IC50 (HEPG2TOX_HILL_SLOPE 3.97, HEPG2TOX_R_SQUARED 0.955, PBLUC_HILL_SLOPE 1.55, PBLUC_R_SQUARED 0.65, read-out: LUCIFERASE INFECTION ASSAY - IC50): 2.73 µM
O=c1cc(-c2ccccc2)[nH]c2cc(-c3cccs3)nn12	> 11.2 µM	8.64 µM	–
O=C(OCc1ccc(Cl)cc1)c1cnc(NNc2ncc(C(=O)OCc3ccc(Cl)cc3)c(C(F)(F)F)n2)nc1C(F)(F)F	0.682 µM	–	IC50 (FFLUC_HILL_SLOPE 1.7, FFLUC_R_SQUARED 0.396, HEPG2TOX_HILL_SLOPE 1.81, HEPG2TOX_R_SQUARED 0.829, PBLUC_HILL_SLOPE 10.6, PBLUC_R_SQUARED 0.55, read-out: LUCIFERASE INFECTION ASSAY - IC50): 0.554 µM
CNC(=O)c1cccc(-c2cc(C3(CNc4ccccc4F)CC3)ccn2)c1	> 10 µM	> 10 µM	–
Cc1ccc2nc(NC(=O)C(C)Oc3ccccc3)c(C(=O)NC3CCCCC3)n2c1 (configuration not stated)	> 7.85 µM	–	IC50 (HEPG2TOX_HILL_SLOPE 7.98, HEPG2TOX_R_SQUARED 0.0955, PBLUC_HILL_SLOPE 9.58, PBLUC_R_SQUARED 0.283, read-out: LUCIFERASE INFECTION ASSAY - IC50): 6.26 µM
Cc1cc(NCc2c(F)cccc2Cl)ccc1N1CCCC1=O	> 10 µM	–	IC50 (PBLUC_HILL_SLOPE 14.5, PBLUC_R_SQUARED 0.0625, read-out: LUCIFERASE INFECTION ASSAY - IC50): 9.88 µM
CC(C)(C)c1ccc(C(=O)NNC(=S)Nc2ccc(Cl)cc2)cc1	8.97 µM	–	IC50 (PBLUC_HILL_SLOPE 14.6, PBLUC_R_SQUARED 0.46, read-out: LUCIFERASE INFECTION ASSAY - IC50): 7.71 µM
CC(c1ccc(-n2cncn2)cc1)N(C)S(=O)(=O)N1CCc2ccccc2C1 (configuration not stated)	> 10 µM	–	IC50 (PBLUC_HILL_SLOPE 2.44, PBLUC_R_SQUARED 0.756, read-out: LUCIFERASE INFECTION ASSAY - IC50): 6.27 µM
CNS(=O)(=O)Cc1ccccc1CNCc1ccc(OC(F)F)cc1	> 10 µM	> 10 µM	–
CC(NC(=O)NCc1ccccc1)c1ccc2ccccc2c1 (configuration not stated)	> 10 µM	> 10 µM	–
CSc1nnc(SC2=CC(=O)CC(c3ccccc3)C2)s1 (configuration not stated)	> 9.87 µM	–	IC50 (FFLUC_HILL_SLOPE 1.55, FFLUC_R_SQUARED 0.208, HEPG2TOX_HILL_SLOPE 8.38, HEPG2TOX_R_SQUARED 0.886, read-out: LUCIFERASE INFECTION ASSAY - IC50): > 9.87 µM
Cc1ccc2nc(CN3CCCCC3c3nc4ccccc4s3)cn2c1 (configuration not stated)	> 10 µM	> 10 µM	–
Cc1nc(SCC(=O)c2ccc(N3CCCC3=O)cc2)c2c(C)c(C)sc2n1	> 10 µM	7.98 µM	–
COc1ccc(C(CNC(=O)c2ccc(Oc3ccc(Cl)cc3[N+](=O)[O-])cc2)N2CCCC2)cc1 (configuration not stated)	> 10 µM	–	IC50 (PBLUC_HILL_SLOPE 1.72, PBLUC_R_SQUARED 0.19, read-out: LUCIFERASE INFECTION ASSAY - IC50): 6.08 µM
COC(=O)c1ccc(S(=O)(=O)N2c3ccccc3CCC2C)cc1 (configuration not stated)	> 10 µM	> 10 µM	–
CC(C)C(Nc1ccc(C(F)(F)F)cc1Cl)C(=O)Nc1nc(-c2ccc(F)cc2)cs1 (configuration not stated)	5.28 µM	–	IC50 (HEPG2TOX_HILL_SLOPE 19.1, HEPG2TOX_R_SQUARED 0.637, PBLUC_HILL_SLOPE 12.2, PBLUC_R_SQUARED 0.325, read-out: LUCIFERASE INFECTION ASSAY - IC50): 4.41 µM
Cc1cc(C)cc(NC(=O)C(Sc2nc(=O)cc(N)[nH]2)c2ccccc2)c1 (configuration not stated)	> 10 µM	> 10 µM	–
COC(=O)c1c(C)[nH]c(-c2csc(N3CCCCC3)n2)c1C	> 10 µM	> 10 µM	–
Cc1noc(C)c1COc1ccccc1C(=O)N1CCN(S(=O)(=O)c2cccc(C(F)(F)F)c2)CC1	> 10 µM	> 10 µM	–
O=C(O)CSc1nc2ccccc2c(=O)n1-c1ccccc1Cl	> 10 µM	> 10 µM	–

Compound	IC90	IC50 [1]	other results
Cn1c2ccccc2c2ccc(CC(=O)N/N=C/c3ccccc3)cc21	> 10 µM	> 10 µM	–
CCn1c(SCc2csc(N(C(C)=O)c3cccc(C)c3)n2)nc2ccccc2c1=O	> 10 µM	–	IC50 (PBLUC_HILL_SLOPE 13.6, PBLUC_R_SQUARED 0.153, read-out: LUCIFERASE INFECTION ASSAY - IC50): > 10 µM
COc1ccc(N2C(=O)c3ccccc3C(C=NNC(=O)c3ccc(C)cc3)C2=O)cc1OC (configuration not stated)	5.03 µM	–	IC50 (HEPG2TOX_HILL_SLOPE 8.3, HEPG2TOX_R_SQUARED 0.704, PBLUC_HILL_SLOPE 7.2, PBLUC_R_SQUARED 0.273, read-out: LUCIFERASE INFECTION ASSAY - IC50): 3.7 µM
COc1cc(-c2nc3ccc(NC(=O)Nc4ccc(OC(F)(F)F)cc4)cn3n2)cc(OC)c1OC	4.73 µM	–	IC50 (HEPG2TOX_HILL_SLOPE 11.1, HEPG2TOX_R_SQUARED 0.679, PBLUC_HILL_SLOPE 2.84, PBLUC_R_SQUARED 0.644, read-out: LUCIFERASE INFECTION ASSAY - IC50): 2.18 µM
CCCCNC(=O)c1c(NC(=O)c2cc(F)ccc2C)nc2ccccn12	> 8.96 µM	–	IC50 (PBLUC_HILL_SLOPE 3.71, PBLUC_R_SQUARED 0.517, read-out: LUCIFERASE INFECTION ASSAY - IC50): 6.93 µM
CCOC(=O)c1c(-c2ccc(F)cc2)csc1NC(=O)CSc1nc2c(c(CC)c1C#N)C(=O)CC(C)(C)C2	> 10 µM	–	IC50 (FFLUC_HILL_SLOPE 86.7, FFLUC_R_SQUARED 0.56, PBLUC_HILL_SLOPE 13.6, PBLUC_R_SQUARED 0.125, read-out: LUCIFERASE INFECTION ASSAY - IC50): 8.71 µM
CCOC(=O)c1sc(N)c(C#N)c1COC(=O)c1c(CC)noc1C	0.249 µM	0.244 µM	–
COc1ccc(NC(=O)Cc2cccs2)cc1S(=O)(=O)Nc1ccc(Cl)cc1	> 10 µM	–	IC50 (FFLUC_HILL_SLOPE 1.73, FFLUC_R_SQUARED 0.168, HEPG2TOX_HILL_SLOPE 1.26, HEPG2TOX_R_SQUARED 0.964, PBLUC_HILL_SLOPE 12.3, PBLUC_R_SQUARED 0.183, read-out: LUCIFERASE INFECTION ASSAY - IC50): 9.75 µM
O=C(c1cnc2cc3c(cc2c1)OCCCO3)c1cc(F)ccc1O	3.65 µM	3.12 µM	–
O=C1C(c2ccccc2)=C(c2ccccc2)C(c2ccccc2)=C1c1ccccc1	> 8.58 µM	–	IC50 (FFLUC_HILL_SLOPE 1.74, FFLUC_R_SQUARED 0.65, PBLUC_HILL_SLOPE 1.01, PBLUC_R_SQUARED 0.27, read-out: LUCIFERASE INFECTION ASSAY - IC50): 4.04 µM
COc1cc(CN(C)C(=O)c2ccc3c(c2)S(=O)(=O)N=C2CCCCCN23)ccc1OC(F)F	> 10 µM	–	IC50 (HEPG2TOX_HILL_SLOPE 4.17, HEPG2TOX_R_SQUARED 0.672, PBLUC_HILL_SLOPE 0.764, PBLUC_R_SQUARED 0.62, read-out: LUCIFERASE INFECTION ASSAY - IC50): 1.97 µM
Cc1ccccc1-c1cn2c(-c3ccc(N(C)C)cc3)cnc2cn1	> 10 µM	–	–
COc1cccc(-c2nc(C(=O)Nc3ccc4nc(C(C)(C)C)[nH]c4c3)cs2)c1OC	9.22 µM	–	IC50 (HEPG2TOX_HILL_SLOPE 10.6, HEPG2TOX_R_SQUARED 0.787, PBLUC_HILL_SLOPE 3.59, PBLUC_R_SQUARED 0.651, read-out: LUCIFERASE INFECTION ASSAY - IC50): 4.99 µM
CCCn1c(SCC(=O)N(C)C(C)c2nc3ccccc3s2)nc2sc3c(c2c1=O)CCC3 (configuration not stated)	3.37 µM	–	IC50 (HEPG2TOX_HILL_SLOPE 1.5, HEPG2TOX_R_SQUARED 0.705, PBLUC_HILL_SLOPE 172, PBLUC_R_SQUARED 0.534, read-out: LUCIFERASE INFECTION ASSAY - IC50): 3.33 µM
C/C(=N\NC(=S)NC(C)(C)C)c1ccc(OCc2ncc(C(F)(F)F)cc2Cl)cc1	0.938 µM	0.801 µM	–
Cc1cc(C(=O)CN(C)Cc2nc(=O)c3ccccc3[nH]2)c(C)n1Cc1ccc(F)cc1	> 10 µM	–	IC50 (PBLUC_HILL_SLOPE 13.1, PBLUC_R_SQUARED 0.161, read-out: LUCIFERASE INFECTION ASSAY - IC50): 8.98 µM
O=C(/C=C/c1ccc(-n2nncc2-c2ccccc2)cc1)c1ccccc1	> 10 µM	–	IC50 (HEPG2TOX_HILL_SLOPE 8.1, HEPG2TOX_R_SQUARED 0.474, PBLUC_HILL_SLOPE 4.46, PBLUC_R_SQUARED 0.811, read-out: LUCIFERASE INFECTION ASSAY - IC50): 6.74 µM
CC(C)Cc1ccc(C(=O)CC(Sc2ccccc2N)c2ccc(Cl)cc2)cc1 (configuration not stated)	1.03 µM	0.135 µM	–
COc1cc(OC)cc(-c2cnc3cnc(-c4ccc(Cl)cc4)cn23)c1	8.07 µM	–	IC50 (HEPG2TOX_HILL_SLOPE 2.36, HEPG2TOX_R_SQUARED 0.458, PBLUC_HILL_SLOPE 2.59, PBLUC_R_SQUARED 0.445, read-out: LUCIFERASE INFECTION ASSAY - IC50): 3.46 µM
O=C(NCC1COc2ccccc2O1)c1cc2ccccc2cc1O (configuration not stated)	> 10 µM	> 10 µM	–
CCCc1c(O)nc2ccc(C)cc2c1C	> 15.3 µM	–	IC50 (HEPG2TOX_HILL_SLOPE 1.25, HEPG2TOX_R_SQUARED 0.942, PBLUC_HILL_SLOPE 1.62, PBLUC_R_SQUARED 0.0626, read-out: LUCIFERASE INFECTION ASSAY - IC50): 11.3 µM
Cc1nn(-c2cccc(C(F)(F)F)c2)c2sc(C(=O)NC(=S)N(C)C3CCCCC3)cc12	1.27 µM	1.09 µM	–

From ChEMBL document CHEMBL4483862, “Open-source discovery of chemical leads for next-generation chemoprotective antimalarials” (2018)
